“And” between values parts separate entries of the source, which are not always exact repeats. Equal values may be shown once. Where no end group is shown, it is not given here.
Key:
E. coli TOP10 = assay: Membrane damage assay in MHB I (GFP loss, PI uptake); format: cell-based; settings: not cation-adjusted, n = 3
Method: For membrane damage assays, the bacterial strain […] [pSEVA271-sfGFP] and the peptide dilutions were prepared as described for the MIC measurements but by scaling all volumes 5-fold and using 96-well plates (polypropylene, U-bottom, 650201, Greiner, Kremsmünster, AT) with a final assay volume of 200 μl. The bacterial strain suspension was furthermore supplemented with a final concentration of 1 μg ml^−1 propidium iodide (PI, from a 1 mg ml^−1 stock in water) just before pipetting the assay. After 1 h incubation at room temperature, the cell membrane integrity was assessed by flow cytometry using a Fortessa Analyzer (BD Biosciences) and appropriate filters for GFP and PI (488-nm laser with 530/30-nm bandpass filter and 579-nm laser with 610/20-nm bandpass filter). […]
Fig. S8 | Membrane damage assay. Membrane damage assays measuring PI uptake of the cells (% cells are given that gained PI fluorescence) and GFP loss (% of the cells are given that lost sfGFP fluorescence) when incubating E. coli TOP10 cells with various peptide concentrations in MHB I (n=3; error bars = 1SD).Fig. S7 | Interactions observed per amino acid residue. For each amino acid residue, the occurrences of interactions at all positions were counted. No antagonistic effect was detected for glutamate and valine residues. No interaction was detected for serine. […]

HeLa cells = assay: In vitro toxicity assay (MTT), HeLa; format: cell-based, human
Method: (§1) HeLa epithelioid cervix carcinoma cells (originally purchased: 93021013, Sigma Aldrich) and HEK 293 human embryonic kidney (originally purchased: 85120602, Sigma Aldrich) were routinely cultivated in Dulbecco’s MEM high glucose (DMEM, with L-glutamine, without phenol red, 1-26P32, Bioconcept, Allschwil, CH), supplemented with 10% fetal bovine serum (heat inactivated, sterile filtered, F9665, Sigma Aldrich) and 100 IU ml^−1/100 μg ml^−1 Penicillin/streptomycin (4-01F00, Bioconcept) at 37°C with 5% CO2. Cells were split at a confluency of ≤ 90% (every 3 to 4 days) and maintained for max. 10 passages before a fresh aliquot of cells were seeded. […] The cell concentration was determined using a Countess 2 device (Thermo Fisher Scientific) and approx. 5000 (HeLa) or 25,000 (HEK 293) cells were seeded into wells of a 96-well plate (F-bottom, PS, 655180, Greiner) together with 100 μl DMEM. […] For each dilution series, the IC50 value was determined by computing a weighted n-parameters logistic regression using the “nplr” package in R (https://CRAN.R-project.org/package=nplr). […]

mouse red blood cells = assay: Hemolysis assay; format: cell-based; settings: 1 h, 37°C, DPBS, relative to Triton-X100 lysis control, triplicates
Method: Mouse blood was obtained from the ETH Phenomics Center. The erythrocytes were isolated by centrifugation at 500 × g for 10 min and removal of the blood plasma. The cells were washed three times by gently resuspending them in an equal volume of DPBS followed by centrifugation. After the last resuspension, the cells were diluted 1:50 in DPBS. For the hemolysis assay, a log2-serial dilution of each peptide was prepared as described for the MIC but using DPBS and 96-well plates (U-bottom, PP, 650201, Greiner) with a final volume of 100 μl. As lysis control, 2.5% Triton-X100 in DPBS was used in well 10, well 11 served as non-treated control (no peptide added), and well 12 as blank. To each well of the dilution plate, 100 μl of the red blood cells suspension was added. The plate was incubated for 1 h at 37°C. After incubation, the plate was centrifuged at 500 × g for 10 min and 100 μl of the supernatant was transferred to a clean 96-well plate (F-bottom, PS, 655101, Greiner). The absorbance was measured at 540 nm using an Infinite M1000 PRO plate reader (Tecan) and corrected by the measurements from the untreated wells. The lysis of each peptide concentration was expressed relative to the lysis control (set as 100% lysis). The hemolysis assay was performed in biological triplicates.

HEK 293 cells = format: cell-based, human; settings: MTT, 24 h, 37°C, triplicates, read-out: Toxicity IC50
Method: as §1

E. coli ribosomes = settings: S30 extract E. coli ATCC 25922; firefly luciferase mRNA; 800 to 0.08 μM; 1 h, 37°C; n = 9; p = 0.15, Wilcoxon, not significant
Method: To measure inhibition of the E. coli ATCC 29522 ribosome, an S30 extract from E. coli cells was purified. E. coli ATCC 25922 was grown in 2 l of liquid LB medium at 37°C and 160 rpm. Cells were harvested in the logarithmic phase by centrifugation for 30 min at 3500 × g at 4°C. The cell pellet was washed with ice-cold S30 buffer (20 mM Tris-acetate pH 8.2, 60 mM potassium acetate, 14 mM magnesium acetate, and 3 mM β-mercaptoethanol) and pelleted again for 30 min at 3500 × g at 4°C. The resulting cell pellet was shock-frozen in liquid nitrogen and stored at −80°C until further processing. Frozen E. coli cells were thawed on ice and resuspended in four times their volume ice-cold S30 buffer. The resulting cell suspension was lysed by passing it twice through a microfluidizer processor (Microfluidics, Westwood, MA, USA) at 25,000 lb/in^2 and the cell lysate was immediately amended with DTT to a final concentration of 1 mM. The lysate was then centrifuged twice for 30 min at 30,000 × g at 4°C. After each centrifugation cycle, the clear supernatant was carefully decanted and the pellet discarded. Aliquots of S30 extract were shock-frozen in liquid nitrogen and stored at −80°C.
Sealed plates were incubated for 1 h at 37°C and stopped on ice before adding 75 μl of luciferase assay reagent (Promega) to each reaction. […]

For RRIRIRPPRLPRPRPRPYFMPRP [Bac7PS], the “membrane damage, compared with MHB II” value (E. coli TOP10) was “more pronounced”, the IC50 (HeLa cells; HeLa, MTT, 24 h, 37°C, triplicates) was 521 µM and the “therapeutic index (TI), Toxicity/MIC” value (HeLa cells; IC50 HeLa divided by MIC50 from clinical isolates) was 180. The “Hemolysis of mouse red blood cells” value (mouse red blood cells; 1xMIC (MIC measured for E. coli ATCC 25922)) was < 4% and 3.1%, the “Hemolysis of mouse red blood cells” value (mouse red blood cells; 4xMIC (MIC measured for E. coli ATCC 25922)) was < 7% and 3.8% and the IC50 (HEK 293 cells) was 755 µM. For the same sequence, the “mean increase of activity on E. coli ribosomes (translation inhibition IC50) compared to Bac7_1-23” value (E. coli ribosomes) was 10%.
